# Measurements: paper PMC9388626, “STUB1 is an intracellular checkpoint for interferon gamma sensing” (Scientific Reports, 2022)
# How the values were obtained:
# Assay in all cases: Lumit immunoassay, phospho-Tyr701-STAT1
# Type in all cases: cell-based, human
# MCF7 cells = details: MCF7, PTPN2 or STUB1 loss, 30 min
# Protocol: (§1) Parental and CRISPR-edited tumour cells were seeded in a cell density of 12,500 (DU145), 15,000 (PC-3), or 30,000 (MCF7) per well in 384-well plate (Greiner Bio-One, #781080) filled with 25 µl culture media + 10% FBS. After 20–24 h incubation, the cells were treated with recombinant human IFNγ (R&D Systems, #285-IF-100) by adding an equal volume of the complete culture media containing the cytokine. After 30 min of stimulation, the culture media were removed by gentle spin using Blue Washer (BlueCatBio). Lumit immunoassay (Promega, #W1202) was performed according to manufacturer’s instrutions. The assay buffer was supplemented with Halt protease and phosphatase inhibitor cocktail (Thermo Scientific, #78443). The cells were lyzed with 12 µl per well of lysis solution (0.02% digitonin) for 20 min. The cell lystates were probed for 90 min with 12 µl of mixture of primary antibodies, which include anti-STAT1 rabbit antibody (Cell Signaling Technology, #14994), anti-pSTAT1 (Tyr701) mouse antibody (Abcam, ab29045), Lumit anti-mouse antibody-LgBiT (Promega) and Lumit anti-rabbit antibody-SmBiT (Promega). Final concentration of each antibody is 0.15 µg ml^−1. After 2 min incubation in the presence of the Lumit detection reagent (6 µl), the luminescence signals were detected by Infinite M1000 PRO (Tecan).
# PC-3 cells = details: PC-3, PTPN2 or STUB1 loss, 30 min
# Protocol: as §1
# DU145 cells = details: DU145, PTPN2 or STUB1 loss, 30 min
# Protocol: as §1
substance,measurement,setting,value
IFNγ,Phosphorylation of Tyr701-STAT1,MCF7 cells,increased the cells’ response to IFNγ in a dose-dependent manner
same,Phosphorylation of Tyr701-STAT1,PC-3 cells,increased the cells’ response to IFNγ in a dose-dependent manner
same,Phosphorylation of Tyr701-STAT1,DU145 cells,increased the cells’ response to IFNγ in a dose-dependent manner
